Counter-ions that a name gives are not always drawn.
melting point: 37 to 38 °C
Structure (SMILES): CO/C=C(/C(=O)OC)c1ccccc1 (as salt: sulphate)

— patent US6566547B1, “Fungicides” (Zeneca Limited, priority 1984, dated 2003)
